Experimental data from patent US20210078972A1, “QUINOLINE OR QUINAZOLINE COMPOUND AND APPLICATION THEREOF” (HAIHE BIOPHARMA CO., LTD., priority 2018, published 2021).

biological target: T1, AXL kinase (Homo sapiens, UniProt P30530); experiment: AXL kinase inhibition, Z'-LYTE FRET; assay type: biochemical; conditions: ATP 50 μM
T1 construct: purchased eurofins 14-500
T1 sequence (P30530 473-894 limits assumed): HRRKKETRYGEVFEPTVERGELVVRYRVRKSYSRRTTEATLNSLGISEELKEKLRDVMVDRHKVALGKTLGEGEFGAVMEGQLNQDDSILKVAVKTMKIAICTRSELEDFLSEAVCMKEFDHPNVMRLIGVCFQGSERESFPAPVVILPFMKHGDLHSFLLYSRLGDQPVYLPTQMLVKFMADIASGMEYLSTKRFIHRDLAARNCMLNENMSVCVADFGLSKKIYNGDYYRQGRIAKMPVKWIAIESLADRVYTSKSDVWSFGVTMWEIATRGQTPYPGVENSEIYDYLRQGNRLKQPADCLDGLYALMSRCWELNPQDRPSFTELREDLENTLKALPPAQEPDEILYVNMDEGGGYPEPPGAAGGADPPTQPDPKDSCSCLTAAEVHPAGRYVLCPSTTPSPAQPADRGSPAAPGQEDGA
From the text: Detection of the activity of kinase: the inhibitory activities of the compounds against AXL kinase (eurofins, 14-500) were detected through a second-order reaction by the Z′-LYTE™ technology (detected by fluorescence, enzyme-coupled form, based on the difference in a sensitivity of phosphorylated and non-phosphorylated polypeptides to proteolytic cleavage), based on the principle of fluorescence resonance energy transfer (FRET), using Z′-LYTE™ FRET peptide substrate (Z′-LYTE™ Tyrosine 6 Peptide Substrate, Invitrogen, PV4122).
Enzymatic reaction: To a 384-well plate was added 5 μL of enzyme-substrate system (50 mM HEPES, pH 6.5, 0.01% BRU-35, 10 mM MgC2, 1 mM EGTA, 0.02% NaNA), and 5 nL of a compound (concentration gradient) was transferred thereto using an echo520 ultramicro-liquid pipetting system. After the plate was shaken at room temperature for 10-20 min, 25 nL of ATP (a final concentration of 50 μM) was transferred thereto using the echo520 ultramicro-liquid pipetting system. After shaking and well mixing, the mixture was centrifuged and reacted at 30° C. in the dark for 1.5 h.
The data analysis method is as follows:
Phosphorylation ratio=1−{(emission ratio×F100%−C100%)/[C0%−C100%+emission ratio×(F100%−F0%)]}×100;
Inhibition rate=100×(1−compound phosphorylation ratio/negative control phosphorylation ratio).
The IC50 values were calculated by GraphPad Prism software.

Compound | IC50
COc1cc2c(Oc3ccc(NC(=O)c4c(C)n(C)c5ccc(OC(F)(F)F)cc5c4=O)cc3F)ncnc2cc1OCCN1CCCC1 [TL-231, N-(3-fluoro-4-((6-methoxy-7-(2-(pyrrolidin-1-yl)ethoxy)quinazolin-4-yl)oxy)phenyl)-1,2-dimethyl-4-oxo-6-(trifluoromethoxy)-1,4-dihydroquinoline-3-carboxamide] | 2.3 nM
COc1cc2ncnc(Oc3ccc(NC(=O)c4c(C)n(C)c5ccc(OC(F)(F)F)cc5c4=O)cc3F)c2cc1OCCCN1CCOCC1 [TL-236, N-(3-fluoro-4-((7-methoxy-6-(3-morpholinopropoxy)quinazolin-4-yl)oxy)phenyl)-1,2-dim ethyl-4-oxo-6-(trifluoromethoxy)-1,4-dihydroquinoline-3-carboxamide] | 2.4 nM
COc1cc2c(Oc3ccc(NC(=O)c4c(C)n(C)c5ccc(OC(F)(F)F)cc5c4=O)cc3F)ncnc2cc1OCCC(C)C [TL-230, N-(3-fluoro-4-((7-(isopentyloxy)-6-methoxyquinazolin-4-yl)oxy)phenyl)-1,2-dimethyl-4-oxo-6-(trifluoromethoxy)-1,4-dihydroquinoline-3-carboxamide] | 59.4 nM
COc1cc2c(Oc3ccc(NC(=O)c4c(C)n(C)c5ccc(OC(F)(F)F)cc5c4=O)cc3F)ncnc2cc1OCCCN1CCCCC1 [TL-216, N-(3-fluoro-4-((6-methoxy-7-(3-(piperidin-1-yl)propoxy)quinazolin-4-yl)oxy)phenyl)-1,2-dimethyl-4-oxo-6-(trifluoromethoxy)-1,4-dihydroquinoline-3-carboxamide] | 1.5 nM

Continued, values first:

IC50 | Compound
6.1 nM | CCCOc1cc2ncnc(Oc3ccc(NC(=O)c4c(C)n(C)c5ccc(OC(F)(F)F)cc5c4=O)cc3F)c2cc1OC [TL-240, N-(3-fluoro-4-((6-methoxy-7-propoxyquinazolin-4-yl)oxy)phenyl)-1,2-dimethyl-4-oxo-6-(trifluoromethoxy)-1,4-dihydroquinoline-3-carboxamide]
1.2 nM | COc1cc2c(Oc3ccc(NC(=O)c4c(C)n(C)c5ccc(OC(F)(F)F)cc5c4=O)cc3F)ncnc2cc1OCCCN1CCN(C)CC1 [TL-238]

tested on: MV4-11 cells; experiment: MV4-11 cell proliferation, CCK-8; assay type: cell-based; conditions: Homo sapiens, 72 h, read-out: IC50 of inhibition of proliferation of MV4-11 cells
Experimental: The inhibitory effects of the compounds on the proliferation of MV4-11 cells were detected by a CCK-8 cell counting kit (Dojindo). The specific steps are as follows: MV4-11 cells in the logarithmic phase were seeded into a 96-well culture plate at a suitable density for 90 μL per well. After overnight cultivation, the compounds at different concentrations were added to act for 72 hr, and a solvent control group was set (negative control). After 72 h of the compounds acting on the cells, the effects of the compounds on cell proliferation were detected using the CCK-8 cell counting kit (Dojindo). 10 μL of CCK-8 reagent was added to each well and the plate was placed in an incubator at 37° C. for 2-4 hours. After that, a full-wavelength microplate enzyme-labeling instrument SpectraMax 190 was used to read with a measurement wavelength of 450 nm.
The inhibition rate (%) of the compound on tumor cell growth was calculated by the following formula:
Inhibition rate (%)=(OD control well−OD administration well)/OD control well×100%
The IC50 values were obtained by regression with the four-parameter method using the software attached to the enzyme-labeling instrument.

IC50 | Compound
< 4 nM | CC(C)(C)c1cc(NC(=O)Nc2ccc(-c3cn4c(n3)sc3cc(OCCN5CCOCC5)ccc34)cc2)no1 [AC220, reference compound]
